Test results taken from ChEMBL document CHEMBL5543109, “Novel β-Hairpin Antimicrobial Peptide Containing the β-Turn Sequence of -NG- and the Tryptophan Zippers Facilitate Self-Assembly into Nanofibers, Exhibiting Excellent Antimicrobial Performance” (J Med Chem, 2024).
≈ marks a conversion by molar mass, not a printed value. Calls of active or inactive are those of the source. The calls are words filed in the database; no cut-off is given here.

Experiments:
Cell membrane [1] = experiment: Induction of inner membrane permeabilization in Escherichia coli ML-35 at 1/2 times MIC measured every 5 mins for 120 mins by ONPG dye based assay; type: cell membranes
[2] = Acute toxicity in mouse assessed as tissue hemorrhage at 230.5 mg/kg, ip by H and E staining based assay; type: organism-based; settings: in vivo
[3] = system: Staphylococcus epidermidis; experiment: Antibacterial activity against Staphylococcus epidermidis ATCC 12228 incubated for 18 hrs by broth microdilution method; type: functional
Staphylococcus aureus [4] = experiment: Additive antibacterial activity against methicillin resistant Staphylococcus aureus 113 assessed as fractional inhibitory concentration index incubated for 18 hrs in presence of ciprofloxacin by checkerboard assay; type: functional
Staphylococcus aureus [5] = experiment: Antibacterial activity against Staphylococcus aureus incubated for 18 hrs in presence of CaCl2 by broth microdilution method; type: functional, organism-based
[6] = system: Staphylococcus epidermidis; experiment: Bactericidal activity against Staphylococcus epidermidis ATCC 12228 incubated for 18 hrs by broth microdilution method; type: functional
Staphylococcus aureus [7] = experiment: Antibacterial activity against Staphylococcus aureus incubated for 18 hrs in presence of ZnCl2 by broth microdilution method; type: functional, organism-based
Cell membrane [8] = experiment: Induction of cell membrane disruption in Staphylococcus aureus assessed as PI uptake at 4 times MIC incubated for 2 hrs by PI staining based flow cytometry analysis (reference value: 15.9%); type: cell membranes
Staphylococcus aureus [9] = experiment: Synergistic antibacterial activity against methicillin resistant Staphylococcus aureus assessed as fractional inhibitory concentration index incubated for 18 hrs in presence of streptomycin by checkerboard assay; type: functional
Staphylococcus aureus [10] = experiment: Antibacterial activity against Staphylococcus aureus 794 infected in BALB/c mouse skin wound infection model assessed as reduction in wound bacterial load at 1 mg/ml, ip administered at 1 hr interval for total 6 treatment and measured after 1 hr post last dose; type: functional, organism-based; settings: time 7.0 hrs
Staphylococcus aureus [11] = experiment: Antibacterial activity against kanamycin resistant Staphylococcus aureus incubated for 18 hrs by broth microdilution method; type: functional
Escherichia coli [12] = experiment: Bactericidal activity against Escherichia coli ATCC 25922 incubated for 18 hrs by broth microdilution method; type: functional
Escherichia coli [13] = experiment: […] antibacterial activity against Escherichia coli assessed as fractional inhibitory concentration index incubated for 18 hrs in presence of polymyxin B by checkerboard assay; type: functional
Staphylococcus aureus [14] = experiment: Antibacterial activity against methicillin resistant Staphylococcus aureus 113 incubated for 18 hrs by broth microdilution method; type: functional
Staphylococcus aureus [15] = experiment: Induction of morphological change in Staphylococcus aureus assessed as morphological distortion at 2 times MIC incubated for 30 mins by SEM analysis; type: functional, organism-based
Staphylococcus aureus [16] = experiment: Antibacterial activity against rifampicin resistant Staphylococcus aureus incubated for 18 hrs by broth microdilution method; type: functional
Staphylococcus aureus [17] = experiment: Antibacterial activity against Staphylococcus aureus incubated for 18 hrs by broth microdilution method; type: functional
Staphylococcus aureus [18] = experiment: Additive antibacterial activity against Staphylococcus aureus 794 assessed as fractional inhibitory concentration index incubated for 18 hrs in presence of ciprofloxacin by checkerboard assay; type: functional
Staphylococcus aureus [19] = experiment: Antibacterial activity against Staphylococcus aureus 794 infected in BALB/c mouse skin wound infection model assessed as wound healing at 1 mg/ml, ip pre-infected with bacteria for 24 hrs followed by compound addition and measured after 13 days post infection; type: functional, organism-based; settings: time 12.0 day
Staphylococcus aureus [20] = experiment: Antibacterial activity against Staphylococcus aureus at 2 times MIC preincubated for 1 hr with trypsin followed by enzyme inactivation and bacterial addition and measured after 18 hrs; type: functional; settings: time 19 hrs
Staphylococcus aureus [21] = experiment: Synergistic antibacterial activity against methicillin resistant Staphylococcus aureus assessed as fractional inhibitory concentration index incubated for 18 hrs in presence of cefotaxime by checkerboard assay; type: functional
Staphylococcus aureus [22] = experiment: Antibacterial activity against Staphylococcus aureus incubated for 18 hrs in presence of FeCl3 by broth microdilution method; type: functional, organism-based
Staphylococcus aureus [23] = experiment: Antibacterial activity against Staphylococcus aureus ATCC 25923 incubated for 18 hrs by broth microdilution method; type: functional
[24] = Self-assembly property of compound in PBS assessed as beta-sheet protofibrils formation at 128 uM incubated for 30 mins by SEM analysis; type: physicochemical; settings: buffer, 0.5 h
Staphylococcus aureus [25] = experiment: Antibacterial activity against Staphylococcus aureus incubated for 18 hrs in presence of MgCl2 by broth microdilution method; type: functional, organism-based
Staphylococcus aureus [26] = experiment: Additive antibacterial activity against Staphylococcus aureus 794 assessed as fractional inhibitory concentration index incubated for 18 hrs in presence of streptomycin by checkerboard assay; type: functional
Staphylococcus aureus [27] = experiment: Additive antibacterial activity against Staphylococcus aureus 794 assessed as fractional inhibitory concentration index incubated for 18 hrs in presence of gentamycin by checkerboard assay; type: functional
[28] = Self-assembly property of compound in PBS assessed as beta-sheet formation by measuring particle size at 50 uM by […]; type: physicochemical; settings: buffer
Staphylococcus aureus [29] = experiment: Antibacterial activity against Staphylococcus aureus ATCC 25923 infected in BALB/c mouse skin wound infection model assessed as reduction in wound bacterial load at 1 mg/ml, ip administered at 1 hr interval for total 6 treatment and measured after 1 hr post last dose; type: functional, organism-based; settings: time 7.0 hrs
Klebsiella pneumoniae = experiment: […] antibacterial activity against Klebsiella pneumoniae assessed as fractional inhibitory concentration index incubated for 18 hrs in presence of polymyxin B by checkerboard assay; type: functional
Staphylococcus aureus [30] = experiment: Antibacterial activity against Staphylococcus aureus 794 infected in BALB/c mouse skin wound infection model assessed as wound healing by measuring thickened scab at 1 mg/ml, ip pre-infected with bacteria for 24 hrs followed by compound addition and measured on day 9; type: functional, organism-based; settings: time 9.0 day
Escherichia coli [31] = experiment: Antibacterial activity against Escherichia coli infected in BALB/c mouse systemic infection model assessed as reduction in lung bacterial load at 5 to 10 mg/kg, ip measured after 24 hrs; type: functional, organism-based; settings: dose 5-10 mg/kg
[32] = Acute toxicity in ip dosed mouse by karber method; type: organism-based; settings: in vivo, read-out: LD50
Staphylococcus aureus [33] = experiment: Antibacterial activity against Staphylococcus aureus 794 infected in BALB/c mouse skin wound infection model assessed as reduction in wound area at 1 mg/ml, ip pre-infected with bacteria for 24 hrs followed by compound addition and measured on day 5 in presence of vancomycin; type: functional, organism-based; settings: time 5.0 day
Staphylococcus aureus [34] = experiment: Additive antibacterial activity against methicillin resistant Staphylococcus aureus 75 assessed as fractional inhibitory concentration index incubated for 18 hrs in presence of ciprofloxacin by checkerboard assay; type: functional
[35] = Acute toxicity in mouse assessed as hepatocyte necrosis at 230.5 mg/kg, ip by H and E staining based assay; type: organism-based; settings: hepatocytes
[36] = Toxicity in BALB/c mouse infected with Staphylococcus aureus 794 assessed as epidermal layer thickness at 1 mg/ml, ip pre-infected with bacteria for 24 hrs followed by compound addition and measured after 13 days by H and E staining based histopathological analysis; type: organism-based; settings: in vivo, 312 h, time 13 day
[37] = Self-assembly property of compound in PBS assessed as beta-sheet nanofibers formation incubated for 1 hr by Thioflavin T based fluorescence spectrophotometer analysis; type: physicochemical; settings: buffer, dose 0.5-1.5 µM
Pseudomonas aeruginosa [38] = experiment: Induction of morphological change in Pseudomonas aeruginosa assessed as pore formation at 2 times MIC incubated for 30 mins by SEM analysis; type: functional, organism-based
Escherichia coli [39] = experiment: Antibacterial activity against Escherichia coli infected in BALB/c mouse systemic infection model assessed as reduction in spleen bacterial load at 5 mg/kg, ip measured after 24 hrs; type: functional, organism-based
Pseudomonas aeruginosa [40] = experiment: Antibacterial activity against Pseudomonas aeruginosa incubated for 18 hrs in presence of NaCl by broth microdilution method; type: functional, organism-based

NCCCC[C@@H](NC(=O)[C@H](N)Cc1c[nH]c2ccccc12)C(=O)N[C@H](Cc1c[nH]c2ccccc12)C(=O)N[C@H](CCCCN)C(=O)N[C@H](Cc1c[nH]c2ccccc12)C(=O)N[C@@H](CC(N)=O)C(=O)NCC(=O)N[C@H](Cc1c[nH]c2ccccc12)C(=O)N[C@H](CCCCN)C(=O)N[C@H](Cc1c[nH]c2ccccc12)C(=O)N[C@H](CCCCN)C(=O)N[C@H](Cc1c[nH]c2ccccc12)C(N)=O
Activity (Cell membrane [1]): inactive | Activity [2]: Toxic | MIC [3]: 4 µM (≈ 7.27 µg/mL) | fractional inhibitory concentration index (FICI) (Staphylococcus aureus [4]): 1 | Activity (Staphylococcus aureus [5]): Active | MBC [6]: 4 µM (≈ 7.27 µg/mL) | Activity (Staphylococcus aureus [7]): Active | Activity (Cell membrane [8]): 95.5% | fractional inhibitory concentration index (FICI) (Staphylococcus aureus [9]): 0.5 | Activity (Staphylococcus aureus [10]): Active | MIC (Staphylococcus aureus [11]): 4 µM (≈ 7.27 µg/mL) | MBC (Escherichia coli [12]): 8 µM (≈ 14.5 µg/mL) | fractional inhibitory concentration index (FICI) (Escherichia coli [13]): 0.375 | MIC (Staphylococcus aureus [14]): 8 µM (≈ 14.5 µg/mL) | Activity (Staphylococcus aureus [15]): Active | MIC (Staphylococcus aureus [16]): 8 µM (≈ 14.5 µg/mL) | MIC (Staphylococcus aureus [17]): 4 µM (≈ 7.27 µg/mL) | fractional inhibitory concentration index (FICI) (Staphylococcus aureus [18]): 0.563 | Activity (Staphylococcus aureus [19]): Active | Activity (Staphylococcus aureus [20]): 100% | fractional inhibitory concentration index (FICI) (Staphylococcus aureus [21]): 0.313 | Activity (Staphylococcus aureus [22]): Active | MIC (Staphylococcus aureus [23]): 4 µM (≈ 7.27 µg/mL) | Activity [24]: Active | Activity (Staphylococcus aureus [25]): Active | fractional inhibitory concentration index (FICI) (Staphylococcus aureus [26]): 0.625 | fractional inhibitory concentration index (FICI) (Staphylococcus aureus [27]): 0.563 | Activity [28]: 874.9 nm | Activity (Staphylococcus aureus [29]): Active | fractional inhibitory concentration index (FICI) (Klebsiella pneumoniae): 0.375 | Activity (Staphylococcus aureus [30]): Active | Activity (Escherichia coli [31]): Active | LD50 [32]: 230 mg/kg | Activity (Staphylococcus aureus [33]): Active | fractional inhibitory concentration index (FICI) (Staphylococcus aureus [34]): 0.563 | Activity [35]: Toxic | Activity [36]: Non-Toxic | Activity [37]: Dose-Dependent Effect | Activity (Pseudomonas aeruginosa [38]): Active | Activity (Escherichia coli [39]): Active | Activity (Pseudomonas aeruginosa [40]): Active
